According to patent US12209079B2 (GENERAL INCORPORATED ASSOCIATION PHARMA VALLEY PROJECT …, priority 2017, dated 2025):

Key:
[1] = system: subcutaneous CT-26WT syngeneic graft of large intestine cancer; assay: Drug efficacy test, combined use of IDO/TDO inhibitor and oxaliplatin, mice with subcutaneous CT-26WT syngeneic graft (Test Example 5); type: in vivo, mouse; details: 40 mg/kg oral twice a day in 0.5% methyl cellulose, combined with oxaliplatin 10 mg/kg i.v.; Balb/c mice; FIG. 4
Experimental: Drug Efficacy Test on Combined Use of IDO/TDO Inhibitor and Oxaliplatin Using Mice with a Subcutaneous CT-26WT Syngeneic Graft of Large Intestine Cancer
5×10^5 cells of syngeneic large intestine cancer cell line CT26WT were subcutaneously transplanted to each of 6-week-old female Balb/c mice. The mice were divided into groups each involving 6 individuals 10 days later within a tumor size range of 41-427 mm^3. The oral administration (solvent for oral administration and 40 mg/kg each of epacadostat and compounds 37, 31, 7, 15, 1, 50, 52, 76, 95, 33, 49, 2, 10, 36, 103, 38 and 29 were administered twice a day at a 5-hour interval from days 1 to 5 and days 8 to 12) and intravenous injection (5% glucose solution and 10 mg/kg oxaliplatin were administered once a day on days 1 and 8) of each agent were started. Then, the major axis and minor axis of subcutaneous tumor were measured three times a week using calipers, and a mean and standard error of the mean of the ratios of the calculated volumes to the volumes at the administration start day in each group were plotted. The calculation expression was Volume (mm^3)=[[…]×Length (mm)]/2. The agent for oral administration was suspended in 0.5% methyl cellulose as a solvent for oral administration. The results are shown in FIG. 4 (if a plurality of experiments were conducted for the same agent, the results were combined).
• with the solid line: the solvent for oral administration and the 5% glucose solution, ▪ with the solid line: compound 37 and oxaliplatin, ▴ with the solid line: epacadostat and oxaliplatin, X with the solid line: compound 31 and oxaliplatin, ∘ with the solid line: the solvent for oral administration and oxaliplatin, □ with the solid line: compound 7 and oxaliplatin, Δ with the solid line: compound 15 and oxaliplatin, X with the solid line: compound 1 and oxaliplatin, • with the broken line: compound 50 and oxaliplatin, ▪ with the broken line: compound 52 and oxaliplatin, ▴ with the broken line: compound 76 and oxaliplatin, X with the broken line: compound 95 and oxaliplatin, ∘ with the broken line: compound 33 and oxaliplatin, □ with the broken line: compound 49 and oxaliplatin, Δ with the broken line: compound 2 and oxaliplatin, + with the solid line: compound 10 and oxaliplatin, rectangle with the solid line: compound 36 and oxaliplatin, • with the dotted line: compound 103 and oxaliplatin, ▪ with the dotted line: compound 38 and oxaliplatin, and ▴ with the dotted line: compound 29 and oxaliplatin.

IDO in A431 cells = target: T1, IDO in A431 cells (Homo sapiens, UniProt P14902); assay: IDO cell-based assay, kynurenine production in IFN-γ stimulated A431 cells; details: A-431, 24 h; final concentration of the compound 10 μM; rate relative to culture without compound
T1 construct: endogenous in cells; host or cells: A431 cells, IFN-γ stimulated
Method in brief: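 A431 cells were cultured 24 h, then preincubated 1 h with compound in medium containing 178 μM L-tryptophan, and stimulated with IFN-γ (diluted to 100 ng/mL before addition) for 24 h. Kynurenine was measured by p-dimethylbenzaldehyde absorbance at 460 nm, background-subtracted, and expressed as % production versus no-compound control.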

[2] = target: rhIDO (recombinant human IDO) (Homo sapiens, UniProt P14902); assay: Enzyme assay using rhIDO (rate of kynurenine production); type: biochemical; details: 2 h; final concentration of the compound 10 μM; rate relative to reaction without compound; read-out: rhIDO-mediated kynurenine production
Method in brief: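 rhIDO preincubated with compound 10 min at 37 °C in phosphate buffer with ascorbate, methylene blue and catalase; started with 2 mM tryptophan solution (stock) and run 120 min at 37 °C. Stopped with TCA and heated to convert N-formylkynurenine; kynurenine read at 490 nm after p-dimethylbenzaldehyde, background-subtracted, as % of no-compound control.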

T1 sequence (P14902 whole entry): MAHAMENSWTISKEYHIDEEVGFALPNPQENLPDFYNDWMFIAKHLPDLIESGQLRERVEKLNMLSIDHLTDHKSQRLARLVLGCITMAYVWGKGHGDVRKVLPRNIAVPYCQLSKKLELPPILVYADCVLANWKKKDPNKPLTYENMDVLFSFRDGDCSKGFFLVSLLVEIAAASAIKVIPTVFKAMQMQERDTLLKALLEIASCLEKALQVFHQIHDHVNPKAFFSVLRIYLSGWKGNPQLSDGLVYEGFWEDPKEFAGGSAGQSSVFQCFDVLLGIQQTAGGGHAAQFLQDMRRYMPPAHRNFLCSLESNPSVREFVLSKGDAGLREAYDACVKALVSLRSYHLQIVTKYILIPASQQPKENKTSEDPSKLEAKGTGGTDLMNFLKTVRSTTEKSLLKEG
Sequence of rhIDO (recombinant human IDO) (P14902 whole entry): as above

Compound	remaining activity at 10 µM (IDO in A431 cells) [%]	remaining activity at 10 µM [2] [%]	tumor growth (ratio of tumor volume to start day) [1]
Cl.Cl.c1ccc(CCN2CN=C(SCc3cscc3CSC3=NCN(CCc4ccccc4)CN3)NC2)cc1 [Compound 33, 3,4-Bis{[(5-phenethyl-1,4,5,6-tetrahydro-1,3,5-triazin-2-yl)thio]methyl}thiophene dihydrochloride]	3	37	can suppress tumor growth
Br.Br.N=C(N)SCc1ccsc1CSC(=N)N [Compound 31, thiophene-2,3-diylbis(methylene) dicarbamimidothioate dihydrobromide]	13	11	can suppress tumor growth
Br.Br.N=C(N)SCc1cscc1CSC(=N)N [Compound 15, thiophene-3,4-diylbis(methylene) dicarbamimidothioate dihydrobromide]	12	22	can suppress tumor growth
Br.N#Cc1ccc(CNC(=O)c2ccc(Br)cc2CSC(=N)N)cc1 [Compound 76, 5-Bromo-2-((4-cyanobenzyl)carbamoyl)benzyl carbamimidothioate hydrobromide]	82	78	can suppress tumor growth
Br.N#Cc1ccc(CNC(=O)c2cc(Br)ccc2CSC(=N)N)cc1 [Compound 103, 4-Bromo-2-((4-cyanobenzyl)carbamoyl)benzyl carbamimidothioate hydrobromide]	3	0	can suppress tumor growth
Clc1cc(CSC2=NCN(CCc3ccccc3)CN2)c(CSC2=NCN(CCc3ccccc3)CN2)cc1Cl [Compound 37, 6,6′-(((4,5-Dichloro-1,2-phenylene)bis(methylene))bis(sulfanediyl))bis(3-phenethyl-1,2,3,4-tetrahydro-1,3,5-triazine)]	1	< 9	can suppress tumor growth
Br.Br.N/C(=N\c1ccc(F)cc1F)SCc1ccccc1CS/C(N)=N/c1ccc(F)cc1F [Compound 95, 1,2-Phenylenebis(methylene) (E,E)-bis(N-(2,4-difluorophenyl)carbamimidothioate)dihydrobromide]	2	3	can suppress tumor growth

The next lines start with results.

remaining activity at 10 µM (IDO in A431 cells) [%]	remaining activity at 10 µM [2] [%]	Compound	tumor growth (ratio of tumor volume to start day) [1]
11	26	Cl.Cl.N=C(N)SCc1ccccc1CSC(=N)N [Compound 1, 1,2-phenylenebis(methylene) dicarbamimidothioate dihydrochloride]	can suppress tumor growth
10	23	c1ccc(CSC2=NCN(CC3CCCCC3)CN2)c(CSC2=NCN(CC3CCCCC3)CN2)c1 [Compound 29, 1,2-bis(((5-(cyclohexylmethyl)-1,4,5,6-tetrahydro-1,3,5-triazin-2-yl)thio)methyl)benzene]	can suppress tumor growth
4	9	Clc1cc(CSC2=NCN(CC3CCCCC3)CN2)c(CSC2=NCN(CC3CCCCC3)CN2)cc1Cl [Compound 50, 6,6′-(((4,5-Dichloro-1,2-phenylene)bis(methylene))bis(sulfanediyl))bis(3-(cyclohexylmethyl)-1,2,3,4-tetrahydro-1,3,5-triazine)]	can suppress tumor growth
-1	1	Br.Br.N=C(N)SCc1ccc(Br)cc1CSC(=N)N [Compound 10, (4-bromo-1,2-phenylene)bis(methylene) dicarbamimidothioate dihydrobromide]	can suppress tumor growth
1	14	Brc1ccc(CSC2=NCN(CC3CCCCC3)CN2)c(CSC2=NCN(CC3CCCCC3)CN2)c1 [Compound 52, 6,6′-(((4-Bromo-1,2-phenylene)bis(methylene))bis(sulfanediyl))bis(3-(cyclohexylmethyl)-1,2,3,4-tetrahydro-1,3,5-triazine)]	can suppress tumor growth
0	10	Br.Br.N=C(N)SCc1ccc(Cl)cc1CSC(=N)N [Compound 7, (4-chloro-1,2-phenylene)bis(methylene) dicarbamimidothioate dihydrobromide]	can suppress tumor growth
7	11	Br.Br.N=C(N)SCc1ccc(F)cc1CSC(=N)N [Compound 2, (4-fluoro-1,2-phenylene)bis(methylene) dicarbamimidothioate dihydrobromide]	can suppress tumor growth
4	1	N/C(=N\c1ccc(Br)cc1)SCc1ccc(Br)cc1CS/C(N)=N/c1ccc(Br)cc1 [Compound 49, (4-Bromo-1,2-phenylene)bis(methylene) (E,E)-bis(N′-(4-bromophenyl)carbamimidothioate)]	can suppress tumor growth
